Values after ≈ are worked out from the molar mass of the structure shown.
Assays:
Test in all cases: MIC, broth microdilution (NCCLS)
Type in all cases: cell-based
[1] = system: E. coli GC2203 (ATCC Control); conditions: Escherichia coli, Mueller-Hinton II broth, 18-22 hours at 35° C.
Description: (§1) Methods for in Vitro Antibacterial Evaluation
(§2) The Minimum Inhibitory Concentration (MIC)
(§3) Antimicrobial susceptibility testing. The in vitro activities of the antibiotics are determined by the broth microdilution method as recommended by the National Committee for Clinical Laboratory Standards (NCCLS) (1). Mueller-Hinton II broth (MHBII)(BBL Cockeysville, Md.) is the medium employed in the testing procedures. Microtiter plates containing serial dilutions of each antimicrobial agent are inoculated with each organism to yield the appropriate density (10^5 CFU/ml) in a 100 μl final volume. The plates are incubated for 18-22 hours at 35° C. in ambient air.
(§4) 1. NCCLS. 2000. Methods for Dilution Antimicrobial Susceptibility Tests for Bacteria That Grow Aerobically; Approved Standards: M7-A5, vol. 20. National Committe for Clinical Laboratory Standards, Wayne, Pa.

[2] = system: S. aureus GC1079 (tet(K)); conditions: Staphylococcus aureus, Mueller-Hinton II broth, 18-22 hours at 35° C.
Description: as §1, §2, §3, §4

[3] = system: E. coli GC4559 (parent GC4560); conditions: Escherichia coli, Mueller-Hinton II broth, 18-22 hours at 35° C.
Description: as §1, §2, §3, §4

[4] = system: S. pyogenes* GC4563 (Clinical); conditions: Streptococcus pyogenes, Mueller-Hinton II broth, 18-22 hours at 35° C.
Description: as §1, §2, §3, §4

[5] = system: H. influenzae<> GC6896 (ATCC Control); conditions: Haemophilus influenzae, Mueller-Hinton II broth, 18-22 hours at 35° C.
Description: as §1, §2, §3, §4

[6] = system: S. aureus GC6466 (tet(M)); conditions: Staphylococcus aureus, Mueller-Hinton II broth, 18-22 hours at 35° C.
Description: as §1, §2, §3, §4

[7] = system: C. albicans GC3066 ATCC (Control); conditions: Candida albicans, Mueller-Hinton II broth, 18-22 hours at 35° C.
Description: as §1, §2, §3, §4

[8] = system: M. catarrhalis* GC6907 (Clinical); conditions: Moraxella catarrhalis, Mueller-Hinton II broth, 18-22 hours at 35° C.
Description: as §1, §2, §3, §4

E. coli GC2270 (tet(M)) = conditions: Escherichia coli
Description: as §1, §2, §3, §4

[9] = system: E. faecalis GC2242 (Van-resistant); conditions: Enterococcus faecalis, Mueller-Hinton II broth, 18-22 hours at 35° C.
Description: as §1, §2, §3, §4

[10] = system: S. pneumoniae* GC1894 (Clinical); conditions: Streptococcus pneumoniae, Mueller-Hinton II broth, 18-22 hours at 35° C.
Description: as §1, §2, §3, §4

[11] = system: E. coli GC4560 (IMP mutant); conditions: Escherichia coli
Description: as §1, §2, §3, §4

E. coli GC1073 (tet(B)) = conditions: Escherichia coli
Description: as §1, §2, §3, §4

[12] = system: S. pneumoniae* GC4465 (Clinical); conditions: Streptococcus pneumoniae, Mueller-Hinton II broth, 18-22 hours at 35° C.
Description: as §1, §2, §3, §4

[13] = system: S. aureus GC2216 (ATCC Control); conditions: Staphylococcus aureus, Mueller-Hinton II broth, 18-22 hours at 35° C.
Description: as §1, §2, §3, §4

[14] = system: S. aureus GC1131 (Clinical); conditions: Staphylococcus aureus, Mueller-Hinton II broth, 18-22 hours at 35° C.
Description: as §1, §2, §3, §4

[15] = system: E. faecalis GC4555 (ATCC Control); conditions: Enterococcus faecalis, Mueller-Hinton II broth, 18-22 hours at 35° C.
Description: as §1, §2, §3, §4

[16] = system: S. aureus GC4536 (Smith MP -In Vivo); conditions: Staphylococcus aureus, Mueller-Hinton II broth, 18-22 hours at 35° C.
Description: as §1, §2, §3, §4

Structure (SMILES) | MIC [1] [µg/mL] | MIC [2] [µg/mL] | MIC [3] [µg/mL] | MIC [4] [µg/mL] | MIC [5] [µg/mL] | MIC [6] [µg/mL] | MIC [7] [µg/mL] | MIC [8] [µg/mL] | MIC (E. coli GC2270 (tet(M))) [µg/mL] | MIC [9] [µg/mL] | MIC [10] [µg/mL] | MIC [11] [µg/mL] | MIC (E. coli GC1073 (tet(B))) [µg/mL] | MIC [12] [µg/mL] | MIC [13] [µg/mL] | MIC [14] [µg/mL] | MIC [15] [µg/mL] | MIC [16] [µg/mL]
CN(C)c1cc2nc(C=C(c3ccccc3)c3ccccc3)oc2c2c1C[C@H]1C[C@H]3[C@H](N(C)C)C(O)=C(C(N)=O)C(=O)[C@@]3(O)C(O)=C1C2=O [Example 1, (6aR,7aS,8S,11aS)-5,8-bis(dimethylamino)-2-(2,2-diphenylvinyl)-9,11a,12-trihydroxy-11,13-dioxo-6,6a,7,7a,8,11,11a,13-octahydrotetraceno[2,1-d][1,3]oxazole-10-carboxamide] | > 64 | 16 (≈ 24.2 µM) | > 64 | 8 (≈ 12.1 µM) | > 64 | 32 (≈ 48.4 µM) | > 64 | > 64 | > 64 | 16 (≈ 24.2 µM) | 8 (≈ 12.1 µM) | 32 (≈ 48.4 µM) | > 64 | 16 (≈ 24.2 µM) | 16 (≈ 24.2 µM) | 16 (≈ 24.2 µM) | 32 (≈ 48.4 µM) | 16 (≈ 24.2 µM)
CC(C)=Cc1nc2ccc3cc4c(c(O)c3c2o1)C(=O)[C@]1(O)C(=O)C(C(N)=O)=C(O)[C@@H](N(C)C)[C@@H]1C4 [Example 2, (7aS,8S,11aS)-8-(dimethylamino)-9,11a,13-trihydroxy-2-(2-methyl-1-propenyl)-11,12-dioxo-7,7a,8,11,11a,12-hexahydronaphthaceno[2,1-d][1,3]oxazole-10-carboxamide] | > 64 | 8 (≈ 16.3 µM) | > 64 | 8 (≈ 16.3 µM) | – | 8 (≈ 16.3 µM) | > 64 | – | > 64 | 8 (≈ 16.3 µM) | – | 8 (≈ 16.3 µM) | > 64 | 8 (≈ 16.3 µM) | 8 (≈ 16.3 µM) | 8 (≈ 16.3 µM) | 8 (≈ 16.3 µM) | 8 (≈ 16.3 µM)
CN(C)c1ccc(-c2nc3ccc4cc5c(c(O)c4c3o2)C(=O)[C@]2(O)C(=O)C(C(N)=O)=C(O)[C@@H](N(C)C)[C@@H]2C5)cc1 [Example 3, (7aS,8S,11aS)-8-(dimethylamino)-2-[4-(dimethylamino)phenyl]-9,11a,13-trihydroxy-11,12-dioxo-7,7a,8,11,11a,12-hexahydronaphthaceno[2,1-d][1,3]oxazole-10-carboxamide] | > 64 | 1 (≈ 1.8 µM) | > 64 | 8 (≈ 14.4 µM) | – | 2 (≈ 3.59 µM) | > 64 | – | > 64 | 2 (≈ 3.59 µM) | – | 16 (≈ 28.7 µM) | > 64 | 2 (≈ 3.59 µM) | 2 (≈ 3.59 µM) | 2 (≈ 3.59 µM) | 2 (≈ 3.59 µM) | 2 (≈ 3.59 µM)
CN(C)c1cc2nc(C(C)(C)C)oc2c2c1C[C@H]1C[C@H]3[C@H](N(C)C)C(O)=C(C(N)=O)C(=O)[C@@]3(O)C(O)=C1C2=O [Example 4, (6aR,7aS,8S,11aS)-2-tert-butyl-5,8-bis(dimethylamino)-9,11a,12-trihydroxy-11,13-dioxo-6,6a,7,7a,8,11,11a,13-octahydrotetraceno[2,1-d][1,3]oxazole-10-carboxamide] | > 64 | 16 (≈ 29.7 µM) | > 64 | 16 (≈ 29.7 µM) | > 64 | 32 (≈ 59.4 µM) | > 64 | 16 (≈ 29.7 µM) | > 64 | 32 (≈ 59.4 µM) | 32 (≈ 59.4 µM) | 16 (≈ 29.7 µM) | > 64 | 16 (≈ 29.7 µM) | 32 (≈ 59.4 µM) | 16 (≈ 29.7 µM) | 32 (≈ 59.4 µM) | 32 (≈ 59.4 µM)
Cc1ccc(-c2nc3cc(N(C)C)c4c(c3o2)C(=O)C2=C(O)[C@]3(O)C(=O)C(C(N)=O)=C(O)[C@@H](N(C)C)[C@@H]3C[C@@H]2C4)cc1 [Example 5, (6aR,7aS,8S,11aS)-5,8-bis(dimethylamino)-9,11a,12-trihydroxy-2-(4-methylphenyl)-11,13-dioxo-6,6a,7,7a,8,11,11a,13-octahydrotetraceno[2,1-d][1,3]oxazole-10-carboxamide] | > 64 | 4 (≈ 6.99 µM) | > 64 | 16 (≈ 27.9 µM) | > 64 | 4 (≈ 6.99 µM) | > 64 | 16 (≈ 27.9 µM) | > 64 | 4 (≈ 6.99 µM) | 8 (≈ 14 µM) | 4 (≈ 6.99 µM) | > 64 | 16 (≈ 27.9 µM) | 4 (≈ 6.99 µM) | 4 (≈ 6.99 µM) | 4 (≈ 6.99 µM) | 4 (≈ 6.99 µM)
CN(C)c1cc2nc(-c3ccc(C#N)cc3)oc2c2c1C[C@H]1C[C@H]3[C@H](N(C)C)C(O)=C(C(N)=O)C(=O)[C@@]3(O)C(O)=C1C2=O [Example 7, (6aR,7aS,8S,11aS)-2-(4-cyanophenyl)-5,8-bis(dimethylamino)-9,11a,12-trihydroxy-11,13-dioxo-6,6a,7,7a,8,11,11a,13-octahydrotetraceno[2,1-d][1,3]oxazole-10-carboxamide] | > 64 | 8 (≈ 13.7 µM) | > 64 | 8 (≈ 13.7 µM) | 64 (≈ 110 µM) | 8 (≈ 13.7 µM) | > 64 | 4 (≈ 6.85 µM) | > 64 | 8 (≈ 13.7 µM) | 16 (≈ 27.4 µM) | 8 (≈ 13.7 µM) | > 64 | 8 (≈ 13.7 µM) | 8 (≈ 13.7 µM) | 8 (≈ 13.7 µM) | 8 (≈ 13.7 µM) | 8 (≈ 13.7 µM)
CN(C)c1cc2nc(-c3cc(C(C)(C)C)ccc3O)oc2c2c1C[C@H]1C[C@H]3[C@H](N(C)C)C(O)=C(C(N)=O)C(=O)[C@@]3(O)C(O)=C1C2=O [Example 10, (6aR,7aS,8S,11aS)-2-(5-tert-butyl-2-hydroxyphenyl)-5,8-bis(dimethylamino)-9,11a,12-trihydroxy-11,13-dioxo-6,6a,7,7a,8,11,11a,13-octahydrotetraceno[2,1-d][1,3]oxazole-10-carboxamide] | > 64 | 16 (≈ 25.4 µM) | > 64 | 16 (≈ 25.4 µM) | > 64 | 16 (≈ 25.4 µM) | > 64 | > 64 | > 64 | 8 (≈ 12.7 µM) | 8 (≈ 12.7 µM) | 32 (≈ 50.7 µM) | > 64 | 16 (≈ 25.4 µM) | 16 (≈ 25.4 µM) | 8 (≈ 12.7 µM) | 16 (≈ 25.4 µM) | 16 (≈ 25.4 µM)
CN(C)c1cc2nc(-c3ccc(O)cc3O)oc2c2c1C[C@H]1C[C@H]3[C@H](N(C)C)C(O)=C(C(N)=O)C(=O)[C@@]3(O)C(O)=C1C2=O [Example 12, (6aR,7aS,8S,11aS)-2-(2,4-dihydroxyphenyl)-5,8-bis(dimethylamino)-9,11a,12-trihydroxy-11,13-dioxo-6,6a,7,7a,8,11,11a,13-octahydrotetraceno[2,1-d][1,3]oxazole-10-carboxamide] | 32 (≈ 54.2 µM) | 8 (≈ 13.5 µM) | > 64 | 4 (≈ 6.77 µM) | 16 (≈ 27.1 µM) | 8 (≈ 13.5 µM) | > 64 | 4 (≈ 6.77 µM) | > 64 | 8 (≈ 13.5 µM) | 8 (≈ 13.5 µM) | 4 (≈ 6.77 µM) | > 64 | 8 (≈ 13.5 µM) | 4 (≈ 6.77 µM) | 4 (≈ 6.77 µM) | 8 (≈ 13.5 µM) | 8 (≈ 13.5 µM)
COc1ccc(-c2nc3cc(N(C)C)c4c(c3o2)C(=O)C2=C(O)[C@]3(O)C(=O)C(C(N)=O)=C(O)[C@@H](N(C)C)[C@@H]3C[C@@H]2C4)cc1F [Example 13, (6aR,7aS,8S,11aS)-5,8-bis(dimethylamino)-2-(3-fluoro-4-methoxyphenyl)-9,11a,12-trihydroxy-11,13-dioxo-6,6a,7,7a,8,11,11a,13-octahydrotetraceno[2,1-d][1,3]oxazole-10-carboxamide] | > 64 | 4 (≈ 6.59 µM) | > 64 | 16 (≈ 26.4 µM) | > 64 | 4 (≈ 6.59 µM) | > 64 | 16 (≈ 26.4 µM) | > 64 | 8 (≈ 13.2 µM) | 16 (≈ 26.4 µM) | 4 (≈ 6.59 µM) | > 64 | 32 (≈ 52.8 µM) | 4 (≈ 6.59 µM) | 4 (≈ 6.59 µM) | 8 (≈ 13.2 µM) | 8 (≈ 13.2 µM)

From US20080064667A1, “OXAZOLE DERIVATIVES OF TETRACYCLINES” (Wyeth, priority 2003, published 2008)
